Measurements taken from ChEMBL document CHEMBL4251708, “Synthesis and Biological Screening of Pyrano[3,2-c]quinoline Analogues as Anti-inflammatory and Anticancer Agents” (ACS Med Chem Lett, 2018).
The source made the active and inactive calls. No cut-off for these calls is given here.

How the values were obtained:
[1] = test system: ACHN (Homo sapiens); experiment: Antiproliferative activity against human ACHN cells at 1 uM relative to control
[2] = test system: MDA-MB-231 (Homo sapiens); experiment: Antiproliferative activity against human MDA-MB-231 cells at 1 uM relative to control; settings: mda-mb-231, 1 µM
[3] = test system: PBMC; experiment: Antiinflammatory activity in human PBMC assessed as inhibition of LPS-induced TNF-alpha production incubated for 30 mins followed by LPS addition measured after 4.5 hrs by ELISA; assay type: functional, cell-based
[4] = test system: THP-1; experiment: Antiinflammatory activity in PMA-differentiated human THP1 cells assessed as inhibition of LPS-induced IL-6 production at 10 uM after 24 hrs by ELISA relative to control; assay type: functional; settings: THP-1, 24 h
[5] = test system: THP-1; experiment: Antiinflammatory activity in PMA-differentiated human THP1 cells assessed as inhibition of LPS-induced TNF-alpha production at 10 uM after 24 hrs by ELISA relative to control; assay type: functional; settings: THP-1, 24 h
[6] = test system: THP-1; experiment: Antiinflammatory activity in PMA-differentiated human THP1 cells assessed as inhibition of LPS-induced TNF-alpha production after 24 hrs by ELISA; assay type: functional, cell-based; settings: THP-1, 24 h
[7] = test system: THP-1; experiment: Antiinflammatory activity in PMA-differentiated human THP1 cells assessed as inhibition of LPS-induced IL-6 production at 1 uM after 24 hrs by ELISA relative to control; assay type: functional; settings: THP-1, 24 h
[8] = test system: THP-1; experiment: Cytotoxicity against PMA-differentiated human THP1 cells assessed as reduction in cell viability after 4.5 hrs by MTS assay; assay type: cell-based; settings: THP-1, 4.5 h
[9] = test system: NCI-H460; experiment: Antiproliferative activity against human H460 cells after 48 hrs by propidium iodide staining based fluorometry; assay type: functional, cell-based; settings: NCI-H460, 48 h
[10] = test system: THP-1; experiment: Antiinflammatory activity in PMA-differentiated human THP1 cells assessed as inhibition of LPS-induced TNF-alpha production at 1 uM after 24 hrs by ELISA relative to control; assay type: functional; settings: THP-1, 24 h
[11] = test system: PANC-1; experiment: Antiproliferative activity against human PANC1 cells after 48 hrs by propidium iodide staining based fluorometry; assay type: functional, cell-based; settings: PANC-1, 48 h
[12] = test system: ACHN; experiment: Antiproliferative activity against human ACHN cells at 10 uM relative to control; assay type: functional
[13] = test system: HCT-116; experiment: Antiproliferative activity against human HCT116 cells after 48 hrs by propidium iodide staining based fluorometry; assay type: functional, cell-based; settings: HCT-116, 48 h
[14] = test system: MIA PaCa-2 (Homo sapiens); experiment: Antiproliferative activity against human MIA PaCa-2 cells at 1 uM relative to control
[15] = test system: ACHN; experiment: Antiproliferative activity against human ACHN cells after 48 hrs by propidium iodide staining based fluorometry; assay type: functional, cell-based
[16] = test system: MIA PaCa-2; experiment: Antiproliferative activity against human MIAPaCa2 cells at 10 uM relative to control; assay type: functional
[17] = test system: THP-1 (Homo sapiens); experiment: Antiinflammatory activity in human THP1 cells assessed as inhibition of TNF-alpha production at 10 uM relative to control; set-up: scale not given: the % may be the effect or the level left
[18] = test system: Calu-1; experiment: Antiproliferative activity against human Calu1 cells after 48 hrs by propidium iodide staining based fluorometry; assay type: functional, cell-based; settings: Calu-1, 48 h
[19] = test system: THP-1; experiment: Antiinflammatory activity in PMA-differentiated human THP1 cells assessed as inhibition of LPS-induced IL-6 production after 24 hrs by ELISA; assay type: functional, cell-based; settings: THP-1, 24 h
[20] = test system: THP-1 (Homo sapiens); experiment: Antiinflammatory activity in human THP1 cells assessed as inhibition of IL-6 production at 10 uM relative to control; set-up: scale not given: the % may be the effect or the level left
[21] = test system: ACHN (Homo sapiens); experiment: Antiproliferative activity against human ACHN cells at 10 uM relative to control
[22] = test system: A-549 (Homo sapiens); experiment: Antiproliferative activity against human A-549 cells at 10 uM relative to control
[23] = test system: MDA-MB-231 (Homo sapiens); experiment: Antiproliferative activity against human MDA-MB-231 cells at 10 uM relative to control
[24] = test system: PANC-1; experiment: Antiproliferative activity against human PANC1 cells at 500 nM after 48 hrs by propidium iodide staining based fluorometry relative to control; assay type: functional
[25] = test system: HCT-116; experiment: Antiproliferative activity against human HCT116 cells at 500 nM after 48 hrs by propidium iodide staining based fluorometry relative to control; assay type: functional
[26] = test system: NCI-H460; experiment: Antiproliferative activity against human H460 cells at 500 nM after 48 hrs by propidium iodide staining based fluorometry relative to control; assay type: functional
[27] = test system: ACHN; experiment: Antiproliferative activity against human ACHN cells at 500 nM after 48 hrs by propidium iodide staining based fluorometry relative to control; assay type: functional
[28] = test system: Calu-1; experiment: Antiproliferative activity against human Calu1 cells at 500 nM after 48 hrs by propidium iodide staining based fluorometry relative to control; assay type: functional
[29] = test system: NCI-H460; experiment: Antiproliferative activity against human H460 cells at 700 nM after 48 hrs by propidium iodide staining based fluorometry relative to control; assay type: functional
[30] = test system: HCT-116; experiment: Antiproliferative activity against human HCT116 cells at 700 nM after 48 hrs by propidium iodide staining based fluorometry relative to control; assay type: functional
[31] = test system: PANC-1; experiment: Antiproliferative activity against human PANC1 cells at 700 nM after 48 hrs by propidium iodide staining based fluorometry relative to control; assay type: functional
[32] = test system: Calu-1; experiment: Antiproliferative activity against human Calu1 cells at 700 nM after 48 hrs by propidium iodide staining based fluorometry relative to control; assay type: functional
[33] = test system: ACHN; experiment: Antiproliferative activity against human ACHN cells at 700 nM after 48 hrs by propidium iodide staining based fluorometry relative to control; assay type: functional

IC50 [6] [nM] | IC50 [9] [nM] | IC50 [11] [nM] | IC50 [13] [nM] | IC50 [15] [nM] | IC50 [18] [nM] | IC50 [19] [nM] | SMILES | Activity [1] [%] | Activity [2] [%] | inhibition at 10 µM [4] [%] | inhibition at 10 µM [5] [%] | inhibition at 1 µM [7] [%] | IC50 [8] [µM] | inhibition at 1 µM [10] [%] | Activity [14] [%] | Activity [16] [%] | Activity [17] [%] | Activity [20] [%] | Activity [21] [%] | Activity [22] [%] | other results
4900 | 1300 | 1500 | 1000 | 2800 | 1200 | < 30 | Cn1c(=O)c2c(c3ccccc31)OC(N)=C(C#N)C2c1ccccc1 (centres undefined) | 61 | 0 | 66 | 0 | 0 | > 10 | 0 | 45 | 41 | 0 | 66 | – | – | inhibition [3]: inactive; Activity [12]: 82%
500 | 800 | 800 | 900 | 900 | 800 | 80 | Cn1c(=O)c2c(c3ccccc31)OC(N)=C(C#N)C2c1cccc(Br)c1 (centres undefined) | 73 | 45 | 82 | 0 | 0 | 10 | 2 | 61 | 70 | 38 | 82 | 75 | 78 | IC50 [3]: 500 nM; Activity [23]: 54%
– | – | – | – | – | – | – | Nc1ccn([C@@H]2O[C@H](CO)[C@@H](O)C2(F)F)c(=O)n1 [GEMCITABINE] | – | – | – | – | – | – | – | – | – | – | – | – | – | Activity [24]: 74%; Activity [25]: 73%; Activity [26]: 71%; Activity [27]: 73%; Activity [28]: 79%
300 | 1900 | 2500 | 6600 | 1600 | 1100 | 250 | Cn1c(=O)c2c(c3ccccc31)OC(N)=C(C#N)C2c1cccc([N+](=O)[O-])c1 (centres undefined) | 79 | 53 | 79 | 0 | 0 | > 10 | 11 | 65 | 70 | 43 | 79 | 83 | 71 | IC50 [3]: 200 nM; inhibition [3]: Dose-dependent effect; Activity [23]: 65%
– | – | – | – | – | – | – | CN1CC[C@H](c2c(O)cc(O)c3c(=O)cc(-c4ccccc4Cl)oc23)[C@H](O)C1 [ALVOCIDIB] | – | – | – | – | – | – | – | – | – | – | – | – | – | Activity [29]: 88%; Activity [30]: 71%; Activity [31]: 78%; Activity [32]: 74%; Activity [33]: 71%
– | – | – | – | – | – | – | Cn1c(=O)c2c(c3ccccc31)OC(N)=C(C#N)C2c1ccc([N+](=O)[O-])cc1 (centres undefined) | 9 | 0 | 0 | 0 | 0 | – | 0 | 15 | 64 | 27 | 0 | 75 | 77 | –
– | – | – | – | – | – | – | Cn1c(=O)c2c(c3ccccc31)OC(N)=C(C#N)C2c1ccc(F)cc1 (centres undefined) | 27 | 0 | 66 | 0 | 0 | – | 0 | 16 | 45 | 0 | 66 | 50 | 22 | –
